Experiments:
[1] = system: benzodiazepine receptor complex; details: cited from earlier work
conscious dogs = test: Dose escalation safety study, cardiovascular and respiratory parameters after acute intravenous administration; details: acute intravenous, 3, 5 and 12 mg/kg
Protocol: To establish the safety of eszopiclone, a dose escalation study was carried out. Cardiovascular and respiratory parameters were evaluated in conscious dogs following acute intravenous administration of (R)-, (S)- or racemic zopiclone at three doses (3, 5 and 12 mg/kg).

mice [2] = test: Antagonism of oxotremorine induced salivation; format: in vivo; details: doses up to 300 mg/kg, p.o.
Protocol: (§1) Eszopiclone was evaluated for antimuscarinic activity in vivo.

mice [3] = test: Antimuscarinic activity in vivo: mydriasis; details: maximum dose 100 mg/kg, p.o.
Protocol: as §1

CN1CCN(C(=O)OC2c3nccnc3C(=O)N2c2ccc(Cl)cn2)CC1 (racemic) [racemic zopiclone, zopiclone]
binding to the benzodiazepine receptor complex [1]: binds to the benzodiazepine receptor complex | Blood gases and blood chemistries (pH, pCO2, pO2, hematocrit, and lactate) (conscious dogs): remained unaffected | cardiotoxicity by electrocardiogram (ECG) (conscious dogs): No evidence of cardiotoxicity | effect on blood pressure (conscious dogs): dose dependent, transient decreases | effect on heart rate (conscious dogs): compensatory increase | antagonism of oxotremorine induced salivation (mice [2]): neither (R)-, (S)-, nor racemic zopiclone significantly antagonized | mydriasis (mice [3]): did not produce mydriasis

Source: patent US7776858B2, “Methods of treatment of chronic pain using eszopiclone” (Sepracor Inc., priority 2004, dated 2010)
